We go through one compound from paper PMC7206208, “In vivo data: treatment with the F11R/JAM-A peptide 4D decreases mortality and reduces the generation of atherosclerotic plaques in ApoE-deficient mice” (Data in Brief, 2020).

The conditions of series [1]: mouse, in vivo. How it is done:
The concentration of peptide 4D was measured in the plasma at various time points, and is expressed in µg/ml. […] Time points of 15 min, followed by 1, 2, 4, 5, and 24 hours after the administration of peptide 4D were selected to generate the concentration of Cmax, Tmax, area under the plasma concentration time curve (AUC), drug clearance, terminal elimination half-life, and volume of distribution.
Drug pharmacokinetics (PK) in vivo is a key requirement for the evaluation of the stability and availability of peptide 4D, as a potential compound for use in the next phase of our investigations. Accordingly, PK data of peptide 4D were obtained by the Services of Bio Quant, San Diego, CA. Thus far, a single dose of the F11R peptide 4D and a time perfusion course were performed in Balb/c mice. Time points of 15 min, followed by 1, 2, 4, 5, and 24 hr after the administration of peptide 4D to animals, were selected to generate concentration vs time curves thereby allowing for the determination of the PK parameters of maximal concentration (Cmax), maximal time (Tmax), area under the plasma concentration time curve (AUC), drug clearance, terminal elimination half-life, and volume of distribution of peptide 4D.

Series [2] deals with platelets. Description: M.Ab.F11-induced platelet aggregation in vitro. The conditions noted are these: peptide 4D 0.3 mg (670 µg/ml), from dose-response. The format is cell-based.
Series [3] relates to inflamed endothelium. Description: Platelet adhesion to walls of blood vessels, intravital microscopy. The format is in vivo, mice. The conditions noted are these: intravital microscopy videos, arteriole and venule. From the text:
The F11 Receptor (F11R/JAM-A; Junctional Adhesion Molecule-A; JAM-A; F11R) is a cell adhesion protein present on the surface of circulating platelets and located within the tight junctions of endothelial and epithelial cells. The data presented here confirm in-vivo evidence for the critical role of F11R/JAM-A in the formation of atherosclerotic plaques in ApoE^-/- mice and provide further strong experimental support for our work in Babinska et al. (2019). […] These mice were euthanized, and at the same time, two mice obtained from the peptide 4D-treated group were randomly-selected and euthanized, and their tissues examined histologically in comparison to the controls. […] The data presented in Fig. 3, compare the overall health and physical appearance of 10^1/2 months old ApoE^-/- mice following their termination of a 4- month injection period with either peptide 4D or the vehicle. […] Data of Fig. 5 display the pharmacokinetic analysis (PK) of peptide 4D in vivo. Data display by videos: videos depicting platelet adhesion to the walls of blood vessels using the Intravital Microscopy System are provided and available in this article as the Supplemental Files. […]

The test system of series [4] is ApoE-/- mice. The series can be described thus: Chronic treatment of ApoE-/- mice: atherosclerotic plaques and physical appearance. It counts as in vivo, mouse. How it is done:
Female Apo E^-/- mice (six weeks old) of a C57BL/6J background, (Jackson Laboratory, Bar Harbor, Me), were divided into two separately-housed groups. Group 1 was treated with peptide 4D by daily, intraperitoneal injections with peptide 4D (4.3 mg/200µl) for a 3 month period. Group 2 was injected daily with an equivalent amount of diluent vehicle (200µl of 0.9% saline) for the same 3- month period. All animals were fed a regular Rodent Diet (Calories provided by protein 28.1%, fat 12.13% and carbohydrates 59.8%) for two months, then the diet was switched to a Western-type diet (TD.88137 Adjusted Calories Diet (42% from fat) (0.15% cholesterol, 21% anhydrous milk fat) (Harlan Laboratories Inc.) to induce hypercholesterolemia for a period of one month, [2]. Following 3 month of injections with either the F11R peptide 4D or the vehicle, saline, the animals were euthanized. The aortas and hearts were isolated, dissected, and the atherosclerotic lesions were analyzed.
Following euthanasia, the aortas were prepared for dissection and the aortic arches were photographed. Following dissection, en face lesion surface area assay was performed on the aortas and hearts as previously described, [4], [5]. The dissected aortas were stained with Oil-Red-O stain modified from previously described methods, [4], [6]. […] The total intimal lesion area and the necrotic core area (NE) per cross section were quantified by taking the average of 6 sections spaced 30 µm apart, beginning at the base of the aortic root. The necrotic core areas, acellular/anuclear areas (negative for hematoxylin-positive nuclei, white areas of lesion) were measured per cross section from the same slides where total intimal lesion area was measured. […] Lesion areas or necrotic areas (white areas of lesion) where measured and summarized using software Image-J. The aortas were fixed in PBS/4% formaldehyde for 3 days, washed in PBS followed by staining with 1.8% Oil-Red-O in 60% isopropanol for 15 min at 22°C, then de-stained in 60% isopropanol for 5 min. […]

In series [5] the test system is human platelets (in platelet-rich plasma). Description: ADP-induced platelet aggregation in platelet-rich plasma (turbidimetric). The format is cell-based. The following applies: for maximal platelet aggregation [%] in response to 10 µM ADP: PRP, 37°C, 2 min pre-incubation, mean ± SD, n=3-7. The protocol:
Fig. 4 Test of the effect of peptide 4D on the ADP-induced aggregation of human platelets (in platelet-rich plasma). Fig. 4A. This figure depicts a representative tracing of platelet aggregation induced by ADP (2µM) in the presence of peptide 4D (P4D; 500µM, final concentration), in comparison to the ADP-induced platelet aggregation in the absence of peptide 4D (control). Fig. 4B. This figure depicts a representative tracing of platelet aggregation induced by ADP (10µM) in the presence of peptide 4D (P4D, 500µM final concentration), in comparison to the ADP-induced platelet aggregation in the absence of peptide 4D (control).
Platelet aggregation in platelet-rich plasma (PRP) was carried-out by using the turbidimetric method in a platelet aggregometer (Chronolog, Haverstown, PA). Aliquots of the PRP were maintained at 37°C. The effect of peptide 4D on platelet aggregation was examined by utilizing three concentrations of peptide 4D (final concentrations of 100µM, 250µM and 500 µM). The PRP was incubated for 2 minutes with peptide 4D prior to the addition of ADP at final concentrations of 2µM (subthreshold concentration) or 10µM, for the initiation of platelet aggregation.

Series [6] concerns inflamed endothelial cells. The conditions noted are these: in culture; the authors' earlier work; cited from earlier work. An excerpt: The data in this article focus on the F11 Receptor (F11R/JAM-A; Junctional Adhesion Molecule-A; JAM-A, F11R), a cell adhesion protein constitutively expressed on the membrane surface of circulating platelets and localized within the tight junctions of healthy endothelial cells (ECs). Previous reports have shown that F11R/JAM-A plays a critical role in the adhesion of platelets to an inflamed endothelium due to its’ pathological expression on the luminal surface of the cytokine-inflamed endothelium. Since platelet adhesion to an inflamed endothelium is an early step in the development of athero ...

Non-standard residues stand in square brackets, D forms with d. Residues, ends and D or L forms follow the SMILES beside them.

A word on the Tmax: it is the time from dosing to the highest level. In general, half-life refers to the time in which the quantity being followed falls by half. A lower half-life goes with rapid decline. Regarding `CC(C)[C@H](NC(=O)[C@H](CO)NC(=O)[C@H](N)CCCCN)C(=O)N[C@H](C(=O)N[C@H](CCCNC(=N)N)C(=O)N[C@@H](CCC(=O)O)C(=O)N[C@@H](CC(=O)O)C(=O)N[C@H](C(=O)NCC(=O)N[C@H](C(=O)N[C@@H](Cc1ccc(O)cc1)C(=O)N[C@H](C(=O)N[C@@H](CS)C(N)=O)[C@@H](C)O)[C@@H](C)O)[C@@H](C)O)[C@@H](C)O` [peptide 4D] (H-[dK]SVT[dR]EDTGTYTC-NH2; N-terminus and C-terminus assumed), the Tmax in series [1] is 18 min. The half-life in series [1] was above 210 min. Moreover, the “inhibition of M.Ab.F11-induced platelet aggregation” value in series [2] is listed as “completely inhibited”. The “adhesion of platelets onto the inflamed endothelium” value in series [3] is recorded as “significant blockade”. For the same compound, in series [4] (daily i.p. 215 mg/kg (4.3 mg/200 µl) for 3 months, versus saline controls, two mice per group, Fig. 2), the “plaque accumulation in the aortic arch and the whole aorta” value is “much diminished plaque accumulation”. The external physical appearance result in series [4] (daily i.p. for 3 months, versus saline controls, Fig. 1) is listed as “healthy”. Also, in series [4] (daily i.p. for 4 months, then stopped, observed at 10 1/2 months of age, Fig. 3B), the “skin lesion on the chest” value was “lack of lesion”. Besides, the “effect on ADP-induced platelet aggregation” value in series [5] (Fig. 4 and Table 1, ADP 2 or 10 µM, peptide 100-500 µM) is “lack of an inhibitory effect”. Further, the “maximal platelet aggregation [%] in response to 10 µM ADP” value in series [5] (P4D 100 µM) turned out to be 70 ± 12%; in series [5] (P4D 250 µM), 73 ± 13%; in series [5] (P4D 500 µM), 74 ± 20%. For the same compound, in series [6], the “adhesion of platelets to the inflamed endothelial cells” value was “could be blocked”.
